Experimental data published in the supplement of paper PMC10307832.

How the values were obtained:
Assay in all cases: relative viability (nuclei count vs DMSO), 5 days (fraction); higher = more cells survive
Quizartinib + OSI-027 = compound: CC(C)(C)c1cc(NC(=O)Nc2ccc(-c3cn4c(n3)sc3cc(OCCN5CCOCC5)ccc34)cc2)no1 [Quizartinib] + COc1cccc2cc(-c3nc([C@H]4CC[C@H](C(=O)O)CC4)n4ncnc(N)c34)[nH]c12 [OSI-027] (partner 0.5 µM)
In short: (§1)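 A single step with final 0.05% Triton X-100, 1% formaldehyde and 1 ug/ml Hoechst fixed the cells and stained nuclei 5 days after treatment. Lung cancer cell lines in 1536-well plates had been treated by pin tool the day after seeding with one drug alone or a fixed anchor-drug dose plus five library-drug doses (not always all listed) in √10 steps, and nuclei were counted on 4× images. Relative viability is the ratio of nuclei in treated wells to nuclei in vehicle wells, taken as the median of duplicate plates.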

Quizartinib + Vorinostat = compound: CC(C)(C)c1cc(NC(=O)Nc2ccc(-c3cn4c(n3)sc3cc(OCCN5CCOCC5)ccc34)cc2)no1 [Quizartinib] + O=C(CCCCCCC(=O)Nc1ccccc1)NO [Vorinostat] (partner 1 µM)
In short: as §1

YM155 + Navitoclax = compound: COCC[n+]1c2c(n(Cc3cnccn3)c1C)C(=O)c1ccccc1C2=O [YM155] + CC1(C)CCC(c2ccc(Cl)cc2)=C(CN2CCN(c3ccc(C(=O)NS(=O)(=O)c4ccc(N[C@H](CCN5CCOCC5)CSc5ccccc5)c(S(=O)(=O)C(F)(F)F)c4)cc3)CC2)C1 [Navitoclax] (partner 0.5 µM)
In short: as §1

YM155 + Linsitinib = compound: COCC[n+]1c2c(n(Cc3cnccn3)c1C)C(=O)c1ccccc1C2=O [YM155] + C[C@]1(O)C[C@@H](c2nc(-c3ccc4ccc(-c5ccccc5)nc4c3)c3c(N)nccn32)C1 [Linsitinib] (partner 1 µM)
In short: as §1

Row | Cell Line | relative viability (Quizartinib + OSI-027; first compound 0.001 µM) | relative viability (Quizartinib + OSI-027; first compound 0.003162 µM) | relative viability (Quizartinib + OSI-027; first compound 0.01 µM) | relative viability (Quizartinib + OSI-027; first compound 0.03162 µM) | relative viability (Quizartinib + OSI-027; first compound 0.1 µM) | relative viability (Quizartinib + Vorinostat; first compound 0.003162 µM) | relative viability (Quizartinib + Vorinostat; first compound 0.01 µM) | relative viability (Quizartinib + Vorinostat; first compound 0.03162 µM) | relative viability (Quizartinib + Vorinostat; first compound 0.1 µM) | relative viability (YM155 + Navitoclax; first compound 0.002 µM) | relative viability (YM155 + Navitoclax; first compound 0.006325 µM) | relative viability (YM155 + Navitoclax; first compound 0.02 µM) | relative viability (YM155 + Navitoclax; first compound 0.06325 µM) | relative viability (YM155 + Linsitinib; first compound 0.002 µM) | relative viability (YM155 + Linsitinib; first compound 0.006325 µM) | relative viability (YM155 + Linsitinib; first compound 0.02 µM) | relative viability (YM155 + Linsitinib; first compound 0.06325 µM) | relative viability (Quizartinib + Vorinostat; first compound 0.001 µM)
1 | H3255 | 0.502 | 0.589 | 0.628 | 0.62 | 0.433 | 0.744 | 0.732 | 0.808 | 0.836 | 0.491 | 0.523 | 0.487 | 0.525 | 1.04 | 0.875 | 0.917 | 0.981 | 
2 | NCI-H2405 | 0.653 | 0.702 | 0.736 | 0.644 | 0.626 | 0.967 | 0.763 | 0.902 | 1.17 | 0.891 | 0.602 | 0.699 | 0.226 | 0.952 | 0.755 | 0.83 | 0.469 | 0.943
3 | NCI-H1666 | 0.755 | 0.883 | 0.856 | 0.764 | 0.857 | 0.974 | 1.16 | 0.893 | 1.07 | 0.991 |  | 0.996 | 0.861 | 0.88 |  | 1.01 | 0.578 | 1.06
4 | COR-L23 | 0.743 | 0.73 | 0.946 | 0.696 | 0.768 | 0.355 | 0.507 | 0.385 | 0.504 | 0.905 | 0.877 | 0.505 | 0.123 | 0.846 | 0.857 | 0.463 | 0.174 | 0.387
5 | NCI-H1734 | 0.522 | 0.543 | 0.636 | 0.555 | 0.611 | 0.802 | 0.796 | 0.746 | 0.854 | 0.867 | 0.88 | 0.835 | 0.876 | 0.916 | 0.811 | 0.889 | 0.979 | 0.748
6 | UMC-11 |  | 0.383 | 0.46 | 0.466 | 0.467 | 0.333 | 0.336 | 0.338 | 0.358 | 0.293 | 0.332 | 0.29 | 0.375 | 0.993 | 1.05 | 1.02 | 1.03 | 0.376
7 | NCI-H596 | 0.665 | 0.745 | 0.652 | 0.663 | 0.547 | 0.775 | 0.61 | 0.686 | 0.6 |  | 0.972 | 1.09 | 1.03 |  | 1.05 | 1.07 | 1.07 | 0.565
8 | NCI-H2228 | 0.616 | 0.557 | 0.679 | 0.431 | 0.539 | 0.565 | 0.844 | 0.535 | 0.629 | 1.03 | 0.487 | 0.956 | 0.857 | 0.84 | 0.628 | 0.917 | 0.825 | 0.51
